Measurements taken from PubChem BioAssay (NCI).
Where “and” joins values, the source holds several entries; their conditions need not be identical. Equal entries are not always repeated.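 96-well plates; 48 h exposure; 5 concentrations. Endpoints by linear interpolation between flanking doses. Not reached: highest tested concentration assigned. GI50 is the concentration that inhibits growth by half. At the TGI there is no net growth.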

How the values were obtained:
Assay in all cases: NCI tumour cell line growth inhibition, 48 h
NCI-H226 lung = tested on: NCI-H226 lung
OVCAR-8 ovarian = tested on: OVCAR-8 ovarian
RXF 393 renal = tested on: RXF 393 renal
SF-268 CNS = tested on: SF-268 CNS
SK-MEL-28 melanoma = tested on: SK-MEL-28 melanoma
IGROV1 ovarian = tested on: IGROV1 ovarian
MCF7 breast = tested on: MCF7 breast
MDA-N = tested on: MDA-N
NCI-H522 lung = tested on: NCI-H522 lung
CAKI-1 renal = tested on: CAKI-1 renal

CC(=O)O[C@]12CCCCCC1C1(O)C(O)CCC[C@H]12 (stereo partly drawn)
TGI (NCI-H226 lung): > 100 µM
TGI (OVCAR-8 ovarian): > 100 µM
TGI (RXF 393 renal): > 100 µM
TGI (SF-268 CNS): > 100 µM
TGI (SK-MEL-28 melanoma): > 100 µM

COC(=O)c1c2c(cc3c1CC1(C3)Cc3cc4c(c(C(=O)OC)c3C1)CCCC4)CCCC2
TGI (IGROV1 ovarian): > 100 µM
TGI (MCF7 breast): > 100 µM
TGI (MDA-N): > 100 µM
TGI (NCI-H226 lung): > 100 µM
TGI (NCI-H522 lung): > 100 µM
TGI (OVCAR-8 ovarian): > 100 µM
TGI (RXF 393 renal): > 100 µM

O=C(c1cc2ccccc2cc1O)N1CCCCC1
TGI (CAKI-1 renal): > 100 µM
TGI (IGROV1 ovarian): 50 µM
TGI (MCF7 breast): > 100 µM
TGI (NCI-H226 lung): 85.9 µM
TGI (OVCAR-8 ovarian): > 100 µM
TGI (RXF 393 renal): > 100 µM
TGI (SF-268 CNS): > 100 µM
TGI (SK-MEL-28 melanoma): > 100 µM

COc1cc([N+](=O)[O-])c(OC)cc1-c1nc2sc(Cl)cn2c1/C=N/Nc1ccccn1
GI50 (IGROV1 ovarian): > 50 µM
TGI (IGROV1 ovarian): > 50 µM
GI50 (MCF7 breast): 11.1 µM
TGI (MCF7 breast): 32 µM
GI50 (NCI-H226 lung): 12.1 µM
TGI (NCI-H226 lung): 48.8 µM
GI50 (NCI-H522 lung): > 50 µM
TGI (NCI-H522 lung): > 50 µM
GI50 (OVCAR-8 ovarian): 17.3 µM
TGI (OVCAR-8 ovarian): > 50 µM
GI50 (RXF 393 renal): 12.6 µM
TGI (RXF 393 renal): 26.2 µM
GI50 (SF-268 CNS): 19.2 µM
TGI (SF-268 CNS): > 50 µM

CC[C@H]1CN2CCc3cc(OC)c(OC)cc3[C@@H]2C[C@@H]1C[C@H]1NCCc2cc(OC)c(OC)cc21
TGI (CAKI-1 renal): 0.111 µM and 0.333 µM
TGI (IGROV1 ovarian): 0.0935 µM and 0.277 µM
TGI (MDA-N): 0.0589 µM
TGI (NCI-H226 lung): 0.164 µM and 0.476 µM
TGI (NCI-H522 lung): 0.0392 µM and 0.0356 µM
TGI (OVCAR-8 ovarian): 0.532 µM and 1.09 µM
TGI (RXF 393 renal): 0.0593 µM
TGI (SK-MEL-28 melanoma): 0.176 µM and 0.109 µM

O=c1ccc2cc3ccc4cccc5ccc(c2o1)c3c45
TGI (CAKI-1 renal): > 100 µM
TGI (IGROV1 ovarian): > 100 µM
TGI (NCI-H226 lung): 58.3 µM
TGI (NCI-H522 lung): > 100 µM
TGI (OVCAR-8 ovarian): > 100 µM
TGI (SF-268 CNS): > 100 µM
TGI (SK-MEL-28 melanoma): > 100 µM

Cc1c2c(n(CCc3ccc(Cl)cc3)c1C)NN=C(C#N)S2(=O)=O
TGI (IGROV1 ovarian): > 100 µM
TGI (MCF7 breast): > 100 µM
TGI (MDA-N): > 100 µM
TGI (NCI-H226 lung): > 100 µM
TGI (SF-268 CNS): > 100 µM
TGI (SK-MEL-28 melanoma): > 100 µM

O=C(CNc1ccccc1Cl)Nn1c(-c2ccccc2)nc2ccccc2c1=O
TGI (IGROV1 ovarian): 75.4 µM
TGI (MCF7 breast): 31.4 µM
TGI (NCI-H226 lung): 81.1 µM
TGI (NCI-H522 lung): > 10 µM
TGI (OVCAR-8 ovarian): > 100 µM
TGI (RXF 393 renal): 36.7 µM
TGI (SF-268 CNS): > 100 µM
TGI (SK-MEL-28 melanoma): 55.9 µM

COc1ccc2cc(-c3ccc(-c4ccc(C(=N)N)s4)s3)ccc2c1
GI50 (CAKI-1 renal): 8.29 µM
TGI (CAKI-1 renal): 21.9 µM
GI50 (IGROV1 ovarian): 2.27 µM
TGI (IGROV1 ovarian): 5.45 µM
GI50 (NCI-H226 lung): 23.6 µM
TGI (NCI-H226 lung): 59.3 µM
GI50 (NCI-H522 lung): 1.92 µM
TGI (NCI-H522 lung): 4.57 µM
GI50 (RXF 393 renal): 7.22 µM
TGI (RXF 393 renal): 23.2 µM
GI50 (SF-268 CNS): 2.1 µM
TGI (SF-268 CNS): 4.97 µM
GI50 (SK-MEL-28 melanoma): 2.5 µM
TGI (SK-MEL-28 melanoma): 6.04 µM

C(=N\NC1=NCCCN1)/c1ccc2ccccc2c1
TGI (IGROV1 ovarian): 32.1 µM
TGI (MCF7 breast): 15.8 µM
TGI (MDA-N): 22.5 µM
TGI (NCI-H226 lung): 27.1 µM
TGI (NCI-H522 lung): 32.4 µM
TGI (OVCAR-8 ovarian): 29.3 µM
TGI (RXF 393 renal): 30.3 µM
TGI (SF-268 CNS): 30.2 µM
TGI (SK-MEL-28 melanoma): 31.9 µM

COc1cc2c(cc1-c1c(C)noc1C)cc(C)c(=O)n2Cc1ccccn1
GI50 (CAKI-1 renal): 0.284 µM
TGI (CAKI-1 renal): 23.2 µM
GI50 (IGROV1 ovarian): 1.2 µM
TGI (IGROV1 ovarian): > 100 µM
GI50 (MCF7 breast): 0.333 µM
TGI (MCF7 breast): > 100 µM
GI50 (NCI-H226 lung): 1.59 µM
TGI (NCI-H226 lung): > 100 µM
GI50 (NCI-H522 lung): 0.542 µM
TGI (NCI-H522 lung): 10.9 µM
GI50 (RXF 393 renal): 0.498 µM
TGI (RXF 393 renal): 5 µM
GI50 (SF-268 CNS): 4.22 µM
TGI (SF-268 CNS): > 100 µM
GI50 (SK-MEL-28 melanoma): 3.33 µM
TGI (SK-MEL-28 melanoma): > 100 µM

BrC/C=C/C[P+](c1ccccc1)(c1ccccc1)c1ccccc1
TGI (IGROV1 ovarian): > 100 µM
TGI (NCI-H522 lung): 51.3 µM
TGI (OVCAR-8 ovarian): > 100 µM
TGI (SF-268 CNS): > 100 µM
TGI (SK-MEL-28 melanoma): > 100 µM

c1ccc2sc(SCSc3nc4ccccc4s3)nc2c1
TGI (CAKI-1 renal): > 100 µM
TGI (IGROV1 ovarian): > 100 µM
TGI (MDA-N): > 100 µM
TGI (NCI-H226 lung): > 100 µM
TGI (NCI-H522 lung): > 100 µM
TGI (OVCAR-8 ovarian): > 100 µM
TGI (RXF 393 renal): > 100 µM
TGI (SF-268 CNS): > 100 µM
TGI (SK-MEL-28 melanoma): > 100 µM

CCOC(=O)NC(=S)NN(C)C1=NCC(C)(C)S1
TGI (CAKI-1 renal): > 100 µM
TGI (IGROV1 ovarian): > 100 µM
TGI (MCF7 breast): > 100 µM
TGI (MDA-N): > 100 µM
TGI (NCI-H522 lung): > 100 µM
TGI (RXF 393 renal): > 100 µM
TGI (SK-MEL-28 melanoma): > 100 µM

C1=CC2=CC=CC3c4nc5ccc6ccccc6c5nc4C(=C1)C23 (stereo not drawn)
TGI (CAKI-1 renal): > 100 µM
TGI (IGROV1 ovarian): > 100 µM
TGI (MCF7 breast): > 100 µM
TGI (MDA-N): > 100 µM
TGI (NCI-H226 lung): > 100 µM
TGI (OVCAR-8 ovarian): > 100 µM
TGI (RXF 393 renal): > 100 µM
TGI (SF-268 CNS): > 100 µM
TGI (SK-MEL-28 melanoma): > 100 µM

O=C1C=CC(=O)N1Nc1ccc([N+](=O)[O-])cc1[N+](=O)[O-]
TGI (CAKI-1 renal): > 71 µM
TGI (IGROV1 ovarian): > 100 µM
TGI (NCI-H226 lung): > 100 µM
TGI (NCI-H522 lung): > 58.9 µM
TGI (OVCAR-8 ovarian): > 100 µM
TGI (SF-268 CNS): > 100 µM
TGI (SK-MEL-28 melanoma): > 59.2 µM

O=C(N=Nc1cc(Cl)ccc1Cl)NNc1cc(Cl)ccc1Cl
TGI (CAKI-1 renal): 43.7 µM
TGI (IGROV1 ovarian): 57.3 µM
TGI (MCF7 breast): 36.4 µM
TGI (MDA-N): 84.4 µM
TGI (NCI-H522 lung): 29.9 µM
TGI (OVCAR-8 ovarian): > 100 µM
TGI (RXF 393 renal): 25 µM
TGI (SK-MEL-28 melanoma): 61.2 µM

CS(=O)(=O)OCCn1c(=O)n(CCOS(C)(=O)=O)c(=O)n(CCOS(C)(=O)=O)c1=O
TGI (CAKI-1 renal): > 100 µM
TGI (IGROV1 ovarian): > 100 µM
TGI (MCF7 breast): > 100 µM
TGI (MDA-N): > 100 µM
TGI (NCI-H226 lung): > 100 µM
TGI (OVCAR-8 ovarian): > 100 µM
TGI (RXF 393 renal): > 100 µM
TGI (SF-268 CNS): > 100 µM
TGI (SK-MEL-28 melanoma): > 100 µM

O=C(NC(Cc1ccc(I)cc1)C(=O)O)c1ccc(I)cc1 (stereo not drawn)
TGI (CAKI-1 renal): > 100 µM
TGI (IGROV1 ovarian): > 47.6 µM
TGI (MCF7 breast): > 100 µM
TGI (NCI-H226 lung): > 100 µM
TGI (NCI-H522 lung): > 100 µM
TGI (OVCAR-8 ovarian): > 100 µM
TGI (RXF 393 renal): > 100 µM
TGI (SF-268 CNS): > 100 µM
TGI (SK-MEL-28 melanoma): > 100 µM

CC(C(=O)n1nnc2ccccc21)N(c1ccccc1)c1ccccc1 (stereo not drawn)
TGI (CAKI-1 renal): > 100 µM
TGI (IGROV1 ovarian): > 100 µM
TGI (NCI-H226 lung): > 100 µM
TGI (NCI-H522 lung): > 100 µM
TGI (OVCAR-8 ovarian): > 100 µM
TGI (RXF 393 renal): > 100 µM
TGI (SF-268 CNS): > 100 µM
TGI (SK-MEL-28 melanoma): > 100 µM

O=c1oc(-c2ccc(O)c(O)c2)cc2cccc(O)c12
TGI (CAKI-1 renal): 38.7 µM
TGI (IGROV1 ovarian): > 64.7 µM
TGI (MCF7 breast): > 54.1 µM
GI50 (NCI-H226 lung): 15.2 µM
TGI (NCI-H226 lung): 58.7 µM
TGI (NCI-H522 lung): > 50.8 µM
TGI (OVCAR-8 ovarian): > 100 µM
TGI (RXF 393 renal): 69.3 µM
TGI (SF-268 CNS): > 85.2 µM
GI50 (SK-MEL-28 melanoma): 24.6 µM
TGI (SK-MEL-28 melanoma): 87.3 µM

COc1ccc2nc3cc(Cl)ccc3c(NCCCNCCCNc3c4ccc(Cl)cc4nc4ccc(OC)cc34)c2c1
TGI (MCF7 breast): 0.157 µM
TGI (MDA-N): 0.173 µM
TGI (NCI-H226 lung): 0.177 µM
TGI (NCI-H522 lung): 0.114 µM
TGI (RXF 393 renal): 0.453 µM

Cc1nn(C(=O)Cc2ccccc2)c2c1C(c1ccc(O)cc1)SC(N)=N2 (stereo not drawn)
TGI (CAKI-1 renal): > 100 µM
TGI (IGROV1 ovarian): > 100 µM
TGI (MCF7 breast): > 100 µM
TGI (MDA-N): > 100 µM
TGI (NCI-H226 lung): > 100 µM
TGI (NCI-H522 lung): > 100 µM
TGI (OVCAR-8 ovarian): > 100 µM
TGI (SF-268 CNS): > 100 µM
TGI (SK-MEL-28 melanoma): > 100 µM
